Counter-ions that a name gives are not always drawn.
Tested on: endometriosis model rats
Experiment: Therapeutic effect in endometriosis model rats (uterine tissue autotransplanted to peritoneum; lesion observed by light and electron microscopy)
Type: in vivo, Sprague-Dawley rats (female)
Details: oral; for invasion of mast cells compared with Comparative Example 1 (non-treated model rats): 0.04 mg/kg bodyweight per day for 6 days from 24 hours after model preparation, lesion sampled at day 7; for therapy of endometriosis (overall conclusion) / apoptosis of fibroblast cells / proliferation of the interstitial cells: 0.04 mg/kg bodyweight per day for 6 days, day 7; for apoptosis of fibroblast cells / proliferation of the interstitial cells: light and electron microscope
Method: Endometriosis model rats were prepared by the method described in Michael W. Vernon et al., FERTILITY AND STERILITY, Vol. 44, No. 5, November 1985. That is, endometriosis model rats were prepared as follows: Sprague-Dawley rats (female) of 8 weeks old were acclimatized for 2 weeks under 12 hours light-dark condition. From each rat, right uterine horn was excised under general anesthesia with sevoflurane and ketamine hydrochloride, and a tissue piece sizing 5 mm×5 mm was prepared therefrom. The tissue piece was subjected to autotransplantation such that the endometrium surface is attached to peritoneum.
Seven days after the preparation of the model rats, at which the model lesion reached its peak, the peritoneum tissue including the graft up to the abdominal muscle was excised to obtain a lesion sample. From the thus obtained samples, light microscope specimens (hematoxylin-eosin staining, toluidine blue staining) and electron microscope specimens (uranium-lead double staining) were prepared, and observations with an light microscope (the magnifications were 4× for hematoxylineosin-stained specimens, and 20× for toluidine blue-stained specimens, respectively), and with an electron microscope were carried out as in Reference Example 1.
Endometriosis model rats were prepared by the same method as in Comparative Example 1. From 24 hours after the preparation of the endometriosis model rats, an antiallergic agent (trademark “Alesion Tablet” produced by Boehringer Ingelheim) containing epinastine hydrochloride as the active component was orally administered to the rats for 6 days at a dose of 0.04 mg/kg bodyweight per day in terms of epinastine hydrochloride. Seven days after the preparation of the model rats, at which the model lesion reached its peak, the peritoneum tissues including the graft up to the abdominal muscle were excised to obtain lesion samples.
The same procedures as in Example 1 were repeated except that an antiallergic agent containing ketotifen fumarate as the active component (trademark “Zaditen” produced by Ciba-Geigy Japan Limited) was administered in place of the antiallergic agent containing epinastine hydrochloride as an active component.
The same procedures as in Example 1 were repeated except that an antiallergic agent containing pranlukast hydrate as the active component (trademark “ONON CAPSULE” produced by ONO PHARMACEUTICAL CO.,LTD.) was administered in place of the antiallergic agent containing epinastine hydrochloride as an active component, and that the administration dose per day was 9 mg/kg in terms of pranlukast hydrate.

Structure (SMILES) | invasion of mast cells compared with Comparative Example 1 (non-treated model rats) | therapy of endometriosis (overall conclusion) | apoptosis of fibroblast cells | proliferation of the interstitial cells
NC1=NCC2c3ccccc3Cc3ccccc3N12 (centres unmarked) [epinastine, epinastine hydrochloride] | apparently reduced | effective | observed | prominent inhibition
CN1CCC(=C2c3ccccc3CC(=O)c3sccc32)CC1 [ketofetin, ketotifen fumarate] | apparently reduced | effective | observed | prominent inhibition
